This note sets out measurements from ChEMBL document CHEMBL5653615 (J Biol Chem, 2013).

Each structure is given as a SMILES string. Calls of active or inactive are those of the source. The rule behind the calls is not given here.

Test [1] concerns the target Tyrosine-protein kinase Srms (Homo sapiens) (UniProt Q9H3Y6). The test can be described thus: Inhibition of human SRMS at 1.82 nM by HotSpot assay relative to control.
Test [2] has as its target TGF-beta receptor type-2 (Homo sapiens) (UniProt P37173). The test can be described thus: Inhibition of human TGFBR2 at 1.82 nM by HotSpot assay relative to control.
Test [3] has as its target Maternal embryonic leucine zipper kinase (Homo sapiens) (UniProt Q14680). The test can be described thus: Inhibition of human MELK at 1.82 nM by HotSpot assay relative to control.
Test [4] deals with Homeodomain-interacting protein kinase 2 (Homo sapiens) (UniProt Q9H2X6). The test can be described thus: Inhibition of human HIPK2 at 1.82 nM by HotSpot assay relative to control.
Test [5] has as its target T1, Beta-adrenergic receptor kinase 1 (Homo sapiens) (UniProt P25098).
T1 sequence (whole entry): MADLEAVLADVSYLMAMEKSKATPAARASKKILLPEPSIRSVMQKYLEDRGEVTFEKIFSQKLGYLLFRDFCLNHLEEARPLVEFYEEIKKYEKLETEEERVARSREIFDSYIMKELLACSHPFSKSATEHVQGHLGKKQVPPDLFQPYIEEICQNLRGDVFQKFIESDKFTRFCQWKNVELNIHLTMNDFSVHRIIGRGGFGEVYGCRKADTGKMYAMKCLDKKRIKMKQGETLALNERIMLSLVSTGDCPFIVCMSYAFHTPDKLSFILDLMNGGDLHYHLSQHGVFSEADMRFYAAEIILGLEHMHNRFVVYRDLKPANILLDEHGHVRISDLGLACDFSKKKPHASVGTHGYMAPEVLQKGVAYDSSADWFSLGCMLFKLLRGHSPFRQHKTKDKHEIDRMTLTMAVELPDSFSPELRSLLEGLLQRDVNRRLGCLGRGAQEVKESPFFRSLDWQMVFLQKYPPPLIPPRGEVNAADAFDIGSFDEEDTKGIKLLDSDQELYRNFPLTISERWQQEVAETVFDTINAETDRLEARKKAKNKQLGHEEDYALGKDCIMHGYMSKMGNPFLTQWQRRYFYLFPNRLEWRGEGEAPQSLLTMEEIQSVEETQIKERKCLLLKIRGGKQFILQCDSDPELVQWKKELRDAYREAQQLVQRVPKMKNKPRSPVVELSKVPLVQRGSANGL
Briefly: Inhibition of human GRK2 at 1.82 nM by HotSpot assay relative to control.

In test [6] the target is T2, cGMP-dependent protein kinase 1 (Homo sapiens) (UniProt Q13976).
T2 sequence (whole entry): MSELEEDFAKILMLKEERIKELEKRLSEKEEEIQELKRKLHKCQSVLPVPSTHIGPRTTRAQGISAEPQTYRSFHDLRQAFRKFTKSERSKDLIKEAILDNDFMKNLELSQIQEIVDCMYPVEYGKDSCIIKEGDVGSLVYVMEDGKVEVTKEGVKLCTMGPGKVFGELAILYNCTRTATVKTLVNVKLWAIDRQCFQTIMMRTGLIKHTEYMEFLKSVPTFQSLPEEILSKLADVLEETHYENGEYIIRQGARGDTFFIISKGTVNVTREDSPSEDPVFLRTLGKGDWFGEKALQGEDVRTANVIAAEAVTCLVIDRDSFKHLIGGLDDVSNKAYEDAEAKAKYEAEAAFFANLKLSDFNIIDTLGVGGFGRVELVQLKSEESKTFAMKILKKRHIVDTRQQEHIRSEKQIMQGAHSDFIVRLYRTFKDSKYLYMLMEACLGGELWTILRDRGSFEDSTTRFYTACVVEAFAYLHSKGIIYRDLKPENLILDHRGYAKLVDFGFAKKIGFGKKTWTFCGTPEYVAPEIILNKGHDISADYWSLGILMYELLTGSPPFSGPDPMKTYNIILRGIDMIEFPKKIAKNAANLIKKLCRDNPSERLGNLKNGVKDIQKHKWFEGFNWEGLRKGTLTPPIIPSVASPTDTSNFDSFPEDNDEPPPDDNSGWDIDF
The test can be described thus: Inhibition of human PKG1a at 1.82 nM by HotSpot assay relative to control.

Test [7] addresses Insulin receptor (Homo sapiens) (UniProt P06213). The test can be described thus: Inhibition of wild-type human Insulin receptor transfected in CHO-K1 cell lysate assessed as decrease in tyrosine phosphorylation at 10 uM for 30 mins on ice followed by insulin stimulation for 10 mins by Western blot analysis. The test is classed as subcellular. The settings on record: time 40.0 min. Background: In western blotting, separated proteins are transferred to a membrane and probed.

Test [8] deals with Calcium/calmodulin-dependent protein kinase kinase 1 (Homo sapiens) (UniProt Q8N5S9). The test can be described thus: Inhibition of human CAMKK1 at 500 nM by HotSpot assay relative to control.
The target of test [9] is T3, Discoidin domain-containing receptor 2 (Homo sapiens) (UniProt Q16832).
T3 sequence (whole entry): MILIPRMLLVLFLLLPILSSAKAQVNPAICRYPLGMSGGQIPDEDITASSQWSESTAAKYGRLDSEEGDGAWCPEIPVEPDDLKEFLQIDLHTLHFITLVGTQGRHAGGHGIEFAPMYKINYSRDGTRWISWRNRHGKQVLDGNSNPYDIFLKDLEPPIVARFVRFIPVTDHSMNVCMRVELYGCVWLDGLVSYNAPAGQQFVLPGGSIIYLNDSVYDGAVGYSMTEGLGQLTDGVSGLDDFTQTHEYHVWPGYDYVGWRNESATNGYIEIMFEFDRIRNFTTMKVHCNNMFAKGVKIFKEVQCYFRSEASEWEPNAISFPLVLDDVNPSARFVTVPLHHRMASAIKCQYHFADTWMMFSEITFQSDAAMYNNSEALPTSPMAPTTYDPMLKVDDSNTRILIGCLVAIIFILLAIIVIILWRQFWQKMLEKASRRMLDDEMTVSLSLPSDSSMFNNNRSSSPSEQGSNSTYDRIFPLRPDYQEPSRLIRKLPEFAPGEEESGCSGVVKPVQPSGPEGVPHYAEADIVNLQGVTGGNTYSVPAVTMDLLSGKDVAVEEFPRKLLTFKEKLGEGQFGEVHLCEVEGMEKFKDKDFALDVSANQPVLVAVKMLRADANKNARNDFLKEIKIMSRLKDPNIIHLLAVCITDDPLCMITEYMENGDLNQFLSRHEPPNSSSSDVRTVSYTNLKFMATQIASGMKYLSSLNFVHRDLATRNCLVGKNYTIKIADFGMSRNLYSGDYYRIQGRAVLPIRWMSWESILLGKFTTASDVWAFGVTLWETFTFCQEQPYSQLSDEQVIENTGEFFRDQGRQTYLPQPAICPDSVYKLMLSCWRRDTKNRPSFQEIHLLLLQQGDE
The test can be described thus: Inhibition of human DDR2 at 18.6 nM by HotSpot assay relative to control.

Chain of TGF-beta receptor type-2 (Homo sapiens) (P37173 whole entry): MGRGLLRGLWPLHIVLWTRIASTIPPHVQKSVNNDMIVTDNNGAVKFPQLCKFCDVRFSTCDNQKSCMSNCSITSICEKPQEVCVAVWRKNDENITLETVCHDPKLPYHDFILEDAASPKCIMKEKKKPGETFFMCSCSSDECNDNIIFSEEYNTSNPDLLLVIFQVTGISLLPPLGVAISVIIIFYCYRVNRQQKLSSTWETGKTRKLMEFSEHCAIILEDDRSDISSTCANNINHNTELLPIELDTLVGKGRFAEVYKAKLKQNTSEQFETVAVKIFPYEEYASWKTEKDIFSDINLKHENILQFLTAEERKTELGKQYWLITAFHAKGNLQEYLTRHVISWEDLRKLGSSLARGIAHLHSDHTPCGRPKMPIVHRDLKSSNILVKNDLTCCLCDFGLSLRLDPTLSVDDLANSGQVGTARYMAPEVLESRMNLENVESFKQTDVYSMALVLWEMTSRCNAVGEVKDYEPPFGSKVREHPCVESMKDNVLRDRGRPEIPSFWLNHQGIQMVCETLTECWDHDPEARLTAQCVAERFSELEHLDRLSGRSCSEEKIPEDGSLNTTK
Chain of Insulin receptor (Homo sapiens) (P06213 28-758 limits assumed): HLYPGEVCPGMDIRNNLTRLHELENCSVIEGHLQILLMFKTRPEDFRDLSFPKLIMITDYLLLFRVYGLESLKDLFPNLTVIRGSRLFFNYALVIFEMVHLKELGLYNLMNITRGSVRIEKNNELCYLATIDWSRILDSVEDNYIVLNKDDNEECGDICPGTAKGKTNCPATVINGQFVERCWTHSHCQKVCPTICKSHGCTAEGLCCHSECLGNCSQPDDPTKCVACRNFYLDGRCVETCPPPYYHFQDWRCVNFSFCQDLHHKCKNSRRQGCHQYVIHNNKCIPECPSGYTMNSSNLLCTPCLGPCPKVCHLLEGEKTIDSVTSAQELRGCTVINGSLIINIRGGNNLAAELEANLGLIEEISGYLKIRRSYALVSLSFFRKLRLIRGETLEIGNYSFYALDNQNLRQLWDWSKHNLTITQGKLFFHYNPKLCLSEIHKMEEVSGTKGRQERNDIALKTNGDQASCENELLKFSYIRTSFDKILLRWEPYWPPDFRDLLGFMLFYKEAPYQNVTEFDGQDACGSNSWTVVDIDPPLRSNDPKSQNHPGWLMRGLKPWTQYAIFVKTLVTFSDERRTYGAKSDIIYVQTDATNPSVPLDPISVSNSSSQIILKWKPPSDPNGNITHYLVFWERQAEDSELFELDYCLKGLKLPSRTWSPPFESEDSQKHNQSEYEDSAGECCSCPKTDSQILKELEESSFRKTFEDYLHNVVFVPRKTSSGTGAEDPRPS
Chain of Insulin receptor (Homo sapiens) (P06213 763-1382 limits assumed): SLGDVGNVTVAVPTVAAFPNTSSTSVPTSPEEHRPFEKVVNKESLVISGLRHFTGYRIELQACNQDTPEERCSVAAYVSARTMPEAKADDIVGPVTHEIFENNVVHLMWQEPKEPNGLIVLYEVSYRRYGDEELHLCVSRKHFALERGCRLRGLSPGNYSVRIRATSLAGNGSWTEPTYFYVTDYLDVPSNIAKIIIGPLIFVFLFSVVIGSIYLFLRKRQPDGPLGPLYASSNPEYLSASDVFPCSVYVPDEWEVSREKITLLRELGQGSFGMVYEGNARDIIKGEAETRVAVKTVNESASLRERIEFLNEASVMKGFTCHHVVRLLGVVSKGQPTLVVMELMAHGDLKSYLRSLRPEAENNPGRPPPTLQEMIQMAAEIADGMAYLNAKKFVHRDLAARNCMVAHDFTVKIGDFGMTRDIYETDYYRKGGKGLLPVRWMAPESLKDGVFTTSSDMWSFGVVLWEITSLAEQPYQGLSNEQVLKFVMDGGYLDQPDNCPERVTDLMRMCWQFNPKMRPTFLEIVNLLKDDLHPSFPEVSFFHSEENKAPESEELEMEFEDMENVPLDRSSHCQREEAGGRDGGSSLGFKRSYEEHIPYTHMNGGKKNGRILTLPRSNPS
Chain of Maternal embryonic leucine zipper kinase (Homo sapiens) (Q14680 whole entry, looked up): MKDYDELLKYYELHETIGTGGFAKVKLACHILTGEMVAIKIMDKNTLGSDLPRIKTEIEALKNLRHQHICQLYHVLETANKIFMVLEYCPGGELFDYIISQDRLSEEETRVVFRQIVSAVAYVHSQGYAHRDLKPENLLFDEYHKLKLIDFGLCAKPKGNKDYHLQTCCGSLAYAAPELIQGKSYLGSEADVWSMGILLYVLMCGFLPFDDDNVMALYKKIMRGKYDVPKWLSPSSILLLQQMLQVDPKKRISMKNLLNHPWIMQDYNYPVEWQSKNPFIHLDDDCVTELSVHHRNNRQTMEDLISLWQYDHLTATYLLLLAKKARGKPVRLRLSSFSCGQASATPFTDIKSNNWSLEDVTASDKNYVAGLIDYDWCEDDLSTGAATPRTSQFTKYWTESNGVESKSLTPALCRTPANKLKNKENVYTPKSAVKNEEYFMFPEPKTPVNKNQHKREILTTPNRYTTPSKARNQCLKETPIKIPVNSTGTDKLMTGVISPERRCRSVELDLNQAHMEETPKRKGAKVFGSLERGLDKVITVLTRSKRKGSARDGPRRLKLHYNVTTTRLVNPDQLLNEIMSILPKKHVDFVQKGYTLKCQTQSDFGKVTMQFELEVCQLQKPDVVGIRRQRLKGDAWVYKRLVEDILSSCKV
Chain of Homeodomain-interacting protein kinase 2 (Homo sapiens) (Q9H2X6 whole entry, looked up): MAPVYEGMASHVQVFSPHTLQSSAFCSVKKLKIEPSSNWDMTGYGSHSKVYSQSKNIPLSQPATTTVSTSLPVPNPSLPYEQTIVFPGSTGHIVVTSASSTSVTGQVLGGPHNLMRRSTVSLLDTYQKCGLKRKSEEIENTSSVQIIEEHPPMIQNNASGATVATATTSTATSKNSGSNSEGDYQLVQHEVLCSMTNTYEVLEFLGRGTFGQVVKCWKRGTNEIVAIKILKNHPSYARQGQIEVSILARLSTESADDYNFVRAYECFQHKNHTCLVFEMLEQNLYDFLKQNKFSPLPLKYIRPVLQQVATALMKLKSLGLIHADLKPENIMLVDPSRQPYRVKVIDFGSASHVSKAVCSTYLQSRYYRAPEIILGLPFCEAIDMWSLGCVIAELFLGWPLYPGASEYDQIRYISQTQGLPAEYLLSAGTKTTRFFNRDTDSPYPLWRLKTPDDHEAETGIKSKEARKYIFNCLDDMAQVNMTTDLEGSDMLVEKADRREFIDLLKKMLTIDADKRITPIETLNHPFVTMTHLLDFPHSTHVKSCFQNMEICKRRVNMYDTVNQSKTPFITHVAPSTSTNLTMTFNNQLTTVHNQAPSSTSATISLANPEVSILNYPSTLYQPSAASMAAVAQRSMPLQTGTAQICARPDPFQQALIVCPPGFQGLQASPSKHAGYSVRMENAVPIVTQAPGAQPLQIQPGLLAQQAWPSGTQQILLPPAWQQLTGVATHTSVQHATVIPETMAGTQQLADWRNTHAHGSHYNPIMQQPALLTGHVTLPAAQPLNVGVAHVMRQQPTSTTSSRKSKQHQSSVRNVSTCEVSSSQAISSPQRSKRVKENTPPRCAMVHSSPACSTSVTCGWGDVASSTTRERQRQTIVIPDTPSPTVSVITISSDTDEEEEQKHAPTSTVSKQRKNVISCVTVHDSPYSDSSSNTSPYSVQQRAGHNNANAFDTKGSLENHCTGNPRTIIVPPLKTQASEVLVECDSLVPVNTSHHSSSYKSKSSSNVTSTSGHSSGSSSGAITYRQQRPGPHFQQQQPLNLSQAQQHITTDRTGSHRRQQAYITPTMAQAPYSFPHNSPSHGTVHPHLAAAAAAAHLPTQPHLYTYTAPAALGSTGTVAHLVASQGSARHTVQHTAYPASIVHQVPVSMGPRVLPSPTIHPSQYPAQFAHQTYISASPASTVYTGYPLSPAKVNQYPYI
Chain of Tyrosine-protein kinase Srms (Homo sapiens) (Q9H3Y6 whole entry): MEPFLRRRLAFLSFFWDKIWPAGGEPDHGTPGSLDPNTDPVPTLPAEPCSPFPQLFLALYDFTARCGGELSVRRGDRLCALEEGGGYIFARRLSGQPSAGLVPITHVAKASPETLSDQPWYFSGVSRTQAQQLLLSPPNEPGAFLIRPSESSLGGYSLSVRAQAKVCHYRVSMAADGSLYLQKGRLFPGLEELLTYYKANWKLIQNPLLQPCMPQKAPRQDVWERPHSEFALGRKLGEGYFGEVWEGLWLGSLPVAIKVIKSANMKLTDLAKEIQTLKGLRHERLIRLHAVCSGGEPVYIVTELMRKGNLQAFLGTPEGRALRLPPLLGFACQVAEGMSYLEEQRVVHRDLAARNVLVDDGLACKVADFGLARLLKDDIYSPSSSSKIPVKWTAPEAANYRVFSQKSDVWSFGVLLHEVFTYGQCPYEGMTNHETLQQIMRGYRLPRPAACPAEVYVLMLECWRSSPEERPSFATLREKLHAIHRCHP
Chain of Calcium/calmodulin-dependent protein kinase kinase 1 (Homo sapiens) (Q8N5S9 whole entry, looked up, the tested form may be a part): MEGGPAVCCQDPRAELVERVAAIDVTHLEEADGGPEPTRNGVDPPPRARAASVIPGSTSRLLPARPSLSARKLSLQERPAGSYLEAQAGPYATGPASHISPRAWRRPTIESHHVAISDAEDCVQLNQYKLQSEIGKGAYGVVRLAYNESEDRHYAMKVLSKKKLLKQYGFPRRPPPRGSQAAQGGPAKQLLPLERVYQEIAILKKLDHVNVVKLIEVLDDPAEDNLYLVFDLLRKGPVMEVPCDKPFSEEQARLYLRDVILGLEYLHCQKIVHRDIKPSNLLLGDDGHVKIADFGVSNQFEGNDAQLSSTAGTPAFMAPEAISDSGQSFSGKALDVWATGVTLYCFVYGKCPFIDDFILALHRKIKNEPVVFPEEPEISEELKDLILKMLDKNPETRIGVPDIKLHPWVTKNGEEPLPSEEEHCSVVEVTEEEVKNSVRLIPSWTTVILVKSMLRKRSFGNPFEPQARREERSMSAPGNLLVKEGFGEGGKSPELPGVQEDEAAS

`C[C@@]1(C(=O)Nc2ccc(F)nc2)CCCN1c1nc(Nc2cc(C3CC3)n[nH]2)c2cccn2n1`: the inhibition (commonly the drop in the measured response relative to a control, in per cent) in test [1] is -3.77%; in test [2] it was 5.94%; in [3], 1.63%; in [4], 3.96%; in test [5], -0.25%; in [6], 5.76%.

Regarding `Oc1n[nH]c2nnc(-c3c(-c4ccccc4)nn4ccccc34)cc12`, in [7], the inhibition result was “Active”. In addition, in test [8], the inhibition was -9.31%.

On to `C[C@]1(O)C[C@@H](c2nc(-c3ccc4ccc(-c5ccccc5)nc4c3)c3c(N)nccn32)C1`, for which the inhibition in test [9] was -2.4%.
